Like-named read-outs stand apart in the source and are kept apart here.
Experiments:
[1] = tested on: p-SLP-76 (Ser376) in Jurkat cells; experiment: pSLP76 Cellular Assay (AlphaLISA SureFire Ultra p-SLP-76 (Ser376), anti-CD3 activated Jurkat cells); format: cell-based; conditions: Homo sapiens, read-out: Cellular Potency
Method in brief: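 Read-out is AlphaLISA p-SLP-76 (Ser376) signal at 570 nm in Jurkat lysates, with IC50 fitted by 4-parameter logistic. Cells were starved overnight, exposed 1 h at 37 °C to 22 twofold compound dilutions in HBSS, then activated 45 min with anti-CD3 (0.025 mg/ml stock added).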

HPK1 = HPK1 (Homo sapiens, UniProt Q92918); experiment: HPK1 Biochemical Assay (ADP-Glo luminescence; low ATP 10 μM or high ATP 200 μM)
HPK1, sequence (Q92918 whole entry, species assumed): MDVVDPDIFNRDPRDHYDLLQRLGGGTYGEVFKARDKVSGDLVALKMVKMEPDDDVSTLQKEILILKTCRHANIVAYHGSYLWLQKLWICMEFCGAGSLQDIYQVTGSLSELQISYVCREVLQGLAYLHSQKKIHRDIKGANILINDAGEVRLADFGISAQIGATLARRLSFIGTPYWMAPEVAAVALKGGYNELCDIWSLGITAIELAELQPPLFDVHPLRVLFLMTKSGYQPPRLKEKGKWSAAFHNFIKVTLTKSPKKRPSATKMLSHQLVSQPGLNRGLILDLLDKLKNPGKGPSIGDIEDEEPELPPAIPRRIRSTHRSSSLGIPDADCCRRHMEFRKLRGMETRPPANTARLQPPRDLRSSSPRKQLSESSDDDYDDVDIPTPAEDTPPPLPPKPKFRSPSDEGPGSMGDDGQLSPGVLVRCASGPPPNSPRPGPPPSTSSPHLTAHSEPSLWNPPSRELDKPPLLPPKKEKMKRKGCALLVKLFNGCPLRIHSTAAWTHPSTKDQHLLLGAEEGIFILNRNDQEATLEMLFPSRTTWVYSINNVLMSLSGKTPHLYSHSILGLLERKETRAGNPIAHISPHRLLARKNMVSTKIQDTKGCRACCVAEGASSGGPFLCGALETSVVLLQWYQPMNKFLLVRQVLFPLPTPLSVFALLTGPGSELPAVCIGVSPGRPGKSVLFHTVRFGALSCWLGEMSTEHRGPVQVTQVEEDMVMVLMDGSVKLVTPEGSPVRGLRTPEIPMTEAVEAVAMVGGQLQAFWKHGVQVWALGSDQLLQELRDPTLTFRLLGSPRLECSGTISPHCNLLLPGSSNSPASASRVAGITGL

[2] = pSLP76 (Ser376) AlphaLISA, anti-CD3 activated Jurkat cells
[3] = HPK1 ADP-Glo assay, high ATP (200 μM ATP, 5 nM HPK1), read-out: Biochemical Potency (high ATP)
[4] = Jurkat cells, anti-CD3 stimulation, pSLP76
[5] = 2 nM HPK1, 10 μM ATP, read-out: Biochemical Potency (low ATP)

| Structure (SMILES) | IC50 [1, 2] | IC50 (HPK1; [3]) | IC50 (HPK1; HPK1 ADP-Glo assay, low ATP (10 μM ATP, 2 nM HPK1), read-out: Biochemical Potency (low ATP)) | IC50 [1, 4] | IC50 (HPK1; [5]) |
| --- | --- | --- | --- | --- | --- |
| Cc1cc(Nc2cc3nc(-c4cccc(C(C)(C)C(=O)N(C)C)c4)sc3cn2)nc(N2C[C@@H]3C[C@H]2CN3C)n1 [Example 394] | 0.1 to 1 µM | < 0.1 µM | – | – | – |
| CC(=O)Nc1cccc(-c2nc3cc(Nc4cc(C)nc(N5C[C@@H]6C[C@H]5CN6C)n4)ncc3s2)c1 [Example 423] | 0.1 to 1 µM | < 0.1 µM | – | – | – |
| CN1CCc2ccc(Nc3cc4nc(-c5c(F)cccc5F)sc4cn3)cc2CC1 [Example 328] | 5 to 25 µM | – | 0.1 to 1 µM | – | – |
| Cc1cc(Nc2cc3nc(-c4cncc(C(F)F)c4)sc3cn2)nc(N2C[C@@H]3C[C@H]2CN3C)n1 [Example 384] | 0.1 to 1 µM | < 0.1 µM | – | – | – |
| CC(=O)N1CCn2ncc(-c3nc4cc(Nc5cc(C)nc(N6C[C@@H]7C[C@H]6CN7C)n5)ncc4s3)c2C1 [Example 569] | 0.1 to 1 µM | < 0.1 µM | – | – | – |
| Cc1cccnc1-c1nc2cc(Nc3ccc(Cl)c(CN4CCCC4)n3)ncc2s1 [Example 60] | – | – | – | > 5 µM | < 0.1 µM |
| COc1cccc(F)c1-c1nc2cc(Nc3cccc(N4C[C@@H]5C[C@H]4CN5C)n3)ncc2s1 [Example 80, N-[2-(2-Fluoro-6-methoxyphenyl)-[1,3]thiazolo[5,4-c]pyridin-6-yl]-6-[(1S,4S)-5-methyl-2,5-diazabicyclo[2.2.1]heptan-2-yl]pyridin-2-amine] | – | – | – | 0.1 to 1 µM | < 0.1 µM |
| Cc1cccnc1-c1nc2cc(Nc3cccc(N4C[C@@H]5C[C@H]4CN5C)n3)ncc2s1 [Example 90, 6-[(1S,4S)-5-Methyl-2,5-diazabicyclo[2.2.1]heptan-2-yl]-N-[2-(3-methylpyridin-2-yl)-[1,3]thiazolo[5,4-c]pyridin-6-yl]pyridin-2-amine] | – | – | – | 0.1 to 1 µM | < 0.1 µM |
| Cc1cc(Nc2cc3nc(-c4ncco4)sc3cn2)nc(N2C[C@@H]3C[C@H]2CN3C)n1 [Example 388] | 0.1 to 1 µM | < 0.1 µM | – | – | – |
| CN1C[C@@H]2C[C@H]1CN2c1cccc(Nc2cc3nc(-c4nccn4C)sc3cn2)n1 [Example 108, N-[2-(1-Methyl-1H-imidazol-2-yl)-[1,3]thiazolo[5,4-c]pyridin-6-yl]-6-[(1S,4S)-5-methyl-2,5-diazabicyclo[2.2.1]heptan-2-yl]pyridin-2-amine] | – | – | – | < 0.1 µM | < 0.1 µM |
| Cc1cc(Nc2cc3nc(-c4cccc5c4CCCN5)sc3cn2)nc(N2C[C@@H]3C[C@H]2CN3C)n1 [Example 313, 6-methyl-2-[(1S,4S)-5-methyl-2,5-diazabicyclo[2.2.1]heptan-2-yl]-N-[2-(1,2,3,4-tetrahydroquinolin-5-yl)-[1,3]thiazolo[5,4-c]pyridin-6-yl]pyrimidin-4-amine] | < 0.1 µM | < 0.1 µM | – | – | – |
| CCN1C[C@@H]2C[C@H]1CN2c1nc(Nc2cc3nc(-c4ccnc(C(C)(C)O)c4)sc3cn2)cc(C)c1F [Example 337] | 0.1 to 1 µM | < 0.1 µM | – | – | – |
